Measurements reported in US20120219550A1, “PHARMACEUTICAL COMBINATIONS COMPRISING A PYRIDO [4,3-D] PYRIMIDINE DERIVED HSP90-INHIBITOR AND A HER2 INHIBITOR” (NOVARTIS AG, priority 2008, published 2012).

System: BT-474 breast cancer xenograft
Assay: Antitumor effect in BT-474 human breast carcinoma xenograft model in nude mice
Assay type: in vivo
Conditions: BT-474 xenograft, 21 days treatment, i.v.
Protocol: The estrogen receptor positive cell line BT-474 (ATCC, number HTB-20) which is a human breast carcinoma cell line is used. The cells are grown in DMEM high glucose (4.5 g/l) supplemented with 10% FCS, […] L-glutamine and 1% sodium pyruvate.
In preparation for cell inoculation, each mouse is subcutaneously implanted on the upper dorsal side with a 17β-Estradiol pellet (25 microgram/day; 90 day release) using a trocar needle. BT-474 cells (5×10̂6) are injected in 200 microliter Matrigel:HBSS (1:1 vol) (BD Matrigel™ Basement Membrane Matrix). The injection site is subcutaneously in the right flank. Treatment with compound I is initiated when the average tumor volume reached approximately 100 mm^3 Tumor growth is monitored at regular intervals. The xenograft tumor sizes is measured manually with calipers and the tumor volume is estimated using the formula: […], where width (W) and length (L) are the two largest diameters. Results are presented as mean±SEM. Tumor data are analyzed by ANOVA with post hoc Dunnet's test for comparison of treatment versus control group.
As a measure of efficacy the % T/C value is calculated at the end of the experiment according to:
(Δtumor volumetreated/Δtumor volumecontrol)*100
Where Δtumor volumes represent the mean tumor volume on the evaluation day minus the mean tumor volume at the start of the experiment.
Tumor regression is presented as the relative absolute change in tumor volume from the start to the end of the experiment (−(Tumor volumeevaluation day−Tumor volumestart day)/Tumor volumestart day*100).
The antitumor effect of compound I and trastazumab is evaluated in the BT-474 xenograft model (FIG. 1). The treatment period is 21 days and each treatment group consists of 8 tumor bearing animals. The tumor sizes in the treatment groups are compared to those of the vehicle treated groups and the effect is expressed as % T/C or regression when applicable. […] Compound I is administered i.v. once per week at a dose of 15 mg/kg.

CCNC(=O)c1noc(-c2cc(C(C)C)c(O)cc2O)c1-c1ccc(CN2CCOCC2)cc1 [Compound I, 5-(2,4-Dihydroxy-5-isopropyl-phenyl)-4-(4-morpholin-4-ylmethyl-phenyl)-isoxazole-3-carboxylic acid ethylamide]
antitumor effect in words (comparison with vehicle or single agents): no statistically significant difference from vehicle treated animals
T/C (%) (Trastuzumab 5 mg/kg 2 qw, Compound I 15 mg/kg qw, end of experiment): 96%
reduction of tumor burden (Trastuzumab 5 mg/kg twice per week, Compound I 15 mg/kg qw): 4%
ΔTumor volume (mm^3) (mean ± SEM, Trastuzumab 5 mg/kg 2 qw, Compound I 15 mg/kg qw): 929 ± 152 mm^3
